# Results reported in US20180030537A1, “PUMA, A PRO-APOPTOTIC GENE, AS A NOVEL MOLECULAR BIOMARKER FOR TNFALPHA-INDUCED HUMAN ISLET DAMAGE” (CITY OF HOPE, priority 2010, published 2018).
# Entries after “also recorded” stand apart in the source; their conditions may differ.
# B1: IFN-γ: recombinant human IFNγ, R&D Systems; cytokine stimulus (protein, UniProt P01579 24-161, looked up)
# Interferon gamma: QDPYVKEAENLKKYFNAGHSDVADNGTLFLGILKNWKEESDRKIMQSQIVSFYFKLFKNFKDDQSIQKSVETIKEDMNVKFFNSNKKKRDDFEKLTNYSVTDLNVQRKAIHELIQVMAELSPAAKTGKRKRSQMLFRG
# Experiments:
# human islets [1] = assay: IL-1β stimulation of single human islets, mRNA by RT-PCR; format: cell-based; conditions: recombinant IL-1β up to 100 U/mL, up to 16 hours, n=1
# Experimental: FIGS. 16A-D. IL-1β up-regulates PUMA mRNA in human islets. Single islets in sextuplicate were stimulated with or without recombinant IL-1β (0.10 and 100 U/mL) for up to 16 hours. FIG. 16A) PUMA, FIG. 16B) IL-8, FIG. 16C) endogenous IL-1B and FIG. 16D) endogenous TNF mRNA in islets were normalized by β actin (% ACTB) mRNA assessed by RT-PCR (n=1). IL-1β induced PUMA, IL-8, endogenous IL-1 and TNF in human islets.
# In addition to TNF-α, the expression of PUMA was examined following stimulation with […]. […] alone stimulation induced PUMA, IL-8, TNF and IL1B mRNA within 4 hours. […] IL-1β-induced PUMA expression can also be explained through the NFκB pathway.
# human islets [2] = assay: Drug compound screening in single human islets: TNF-α induced PUMA, IL-8 and TNF mRNA; format: cell-based; conditions: pre-incubation 1 hour, 10 μM (Etanercept 0.1 μg/mL), then 5 ng/mL TNF-α 4 hours, vs control (vehicle alone); for TNF-α induced up regulation of PUMA mRNA (% ACTB): FIG. 4A; for TNF-α induced up regulation of IL-8 mRNA (% ACTB): FIG. 4B; for TNF-α induced up regulation of endogenous TNF mRNA (% ACTB): FIG. 4C
# Experimental: FIGS. 4A-C. PUMA, IL-8 and TNF-α are used as markers to screen drug compounds protecting islets from TNF-α stimulus. Single human islets in hextuplicate were pre-incubated with various drugs (all used at 10 μM except Etanercept (0.1μ/ml)) or solvent (DMSO) at 37° C. for 1 hour, followed by stimulation with or without 5 ng/ml of TNF-α for an additional 4 hours. FIG. 4A: PUMA and ACTB mRNA were quantified and the results are expressed as % ACTB (*p<0.05 vs. control islets with TNF-α). FIG. 4B: IL-8 was quantified and the results are expressed as % ACTB. FIG. 4C: Endogenous TNF-α was quantified and the results are expressed as % ACTB. Together, the results of FIGS. 4A-C show an example of a compound screening system using PUMA, IL-8 and TNF mRNA.
# Human islets and acinar cells isolated for research use were obtained from the Southern California Islet Cell Resources (SC-ICR) Center, Beckman Research Institute of the City of Hope (Duarte, Calif.) 1 to 3 days after isolation. The donor age ranged from 18 to 67 (48±14) years and included both sexes. Islet preparations with >70% purity and >90% viability were used. The use of human islets and acinar cells in this study was approved by the Institutional Review Board of the City of Hope. For mRNA experiments, islets between 150 μm to 300 μm in diameter (medium size islet) were handpicked in hexuplicate by experienced personnel under a dissection microscope without staining. Each handpicked islet was cultured individually in a non-tissue culture treated 96 well plate (Sarstedt, Newton, N.C.) with a CMRL (Mediatech Inc., Holly Hill, Fla.) based serum-free medium, which is used to culture human islets for clinical transplantation. Islets were treated with or without recombinant human TNF-α (0, 1, 5, 50 ng/mL) and/or recombinant human IFNγ (0, 10, 100, 1000 U/mL) for up to 16 hours. For other islet experiments, 500 to 1000 islet equivalent (IEQ) were cultured (500 IEQ/mL of medium) in a Petri dish for up to 24 hours in the same condition described above unless otherwise specified. For acinar cell experiments, acinar cells were kept in islet culture medium at 4° C. immediately after the isolation and used within 24 hours. Aliquots of 5-10 acinar cell clusters in triplicates were cultured with islet culture medium with or without TNF-α for up to 16 hours. For drug compound screening experiments, islets were pre-incubated with Etanercept, FK506, Cyclosporine (CsA), Rapamycin, Imatinib mesylate, Janus Kinase (JAK) inhibitor or p38 inhibitor, SB203580, for 1 hour, and then 5 ng/mL TNF-α was added to the islet culture for 4 hours. All the compounds except Etanercept (0.1 μg/mL) were dissolved in dimethyl sulfoxide (DMSO) and used at a concentration of 10 μM (all compounds are gifts from Hitachi Chemical Research Center).
# RNA purification and PCR was performed as described previously (32). Briefly, following culture, islets were transferred to a 96-well filter plate (Hitachi Chemical Research Center-HCR, Irvine, Calif.)(44) and 50 μL of Lysis Buffer (HCR) containing a cocktail of specific reverse primers was applied to each well. Poly(A)+mRNA isolation was performed using the Hem(A)+™ System (Hitachi Chemical Research Center, Irvine, Calif.). The resultant cell lysates were transferred to oligo(dT)-immobilized microplates (GenePlate, HCR) for poly(A)^+ mRNA purification (45). The cDNA was directly synthesized with 30 μL of solution in each well: specific primer-primed cDNA in the liquid phase and oligo(dT)-primed cDNA in the solid phase (44). The cDNA in the solution was diluted by adding 30 μL nuclease-free water, with 4 μL of the diluted cDNA used for SYBR Green PCR (BioRad, Hercules, Calif.) (46). Each gene was amplified individually. The cycle threshold (Ct) was determined using analytical software (SDS, Applied Biosystems, Foster City, Calif.). Differences in Ct between the target and control mRNA (ΔCt) are used to quantify the relative amount of each target, calculated as 2^−ΔCt. […]
# [3] = children with new onset of T1DM; cited from earlier work
# human islets [4] = assay: Western blot of PUMA and phospho-p65 in cultured human islets; format: cell-based
# Experimental: All data are presented as a mean±standard error.
# In some experiments, islets were pre-incubated with 10 μM NFκB inhibitor; BAY11-7082 for 1 hour before cytokine stimulation. Islet cell lysis and western blot was performed as previously described (49).
# islets = conditions: in vitro; cited from earlier work
# NOD mice = conditions: cited from earlier work
# human islets [5] = assay: Cytokine stimulation of single human islets, mRNA quantification; format: cell-based; conditions: TNF-α 1, 5, 50 ng/ml and/or IFNγ 10, 100, 1000 U/ml
# Experimental: Single islets were stimulated with or without 50 ng/ml TNF-α for 16 hours. Each dot indicates the result of one islet lot tested in hextuplicate. The tests were performed using 4 different human islet lots. Bars indicate the mean of 4 lots. Each gene expression was normalized by ACTB (a gene encoding β actin), and the fold increase was calculated by dividing TNF-α treated islets by control islets (*p<0.01, n=4). […] FIGS. 8B-D) PUMA (FIG. 8B), IL-8 (FIG. 8C) and TNF-α (FIG. 8D) expression from single human islets (n=6) stimulated with 0 (open circles), 1 (solid triangles), 5 (solid squares) and 50 ng/ml (solid circles) TNF-α for 0, 1, 4, 16 hours in 3 independent cases. Dose dependent expression of (FIG. 8E) PUMA, (FIG. 8F) IL-8 and (FIG. 8G) TNF-α in human islet at the 4 hour time point (n=3). […] (FIG. 8K) PUMA and (FIG. 8L) IL-8 expression in human islets stimulated with or without TNF-α (1, 5, 50 ng/ml) and/or IFNγ (10, 100, 1000 U/ml) for 4 hours. […] All data are presented as a mean±standard error.
# Human islets and acinar cells isolated for research use were obtained from the Southern California Islet Cell Resources (SC-ICR) Center, Beckman Research Institute of the City of Hope (Duarte, Calif.) 1 to 3 days after isolation. The donor age ranged from 18 to 67 (48±14) years and included both sexes. Islet preparations with >70% purity and >90% viability were used. […]
# human islets [6] = assay: Preproinsulin precursor mRNA synthesis and total insulin release of single human islets; format: cell-based; conditions: 16 hours, high glucose; TNF-α 50 ng/mL; IFNγ 10-1000 U/ml; FIG. 3B, 3C
# Experimental: FIG. 3B) The glucose induced newly synthesized preproinsulin precursor mRNA measured by pre-spliced preproinsulin mRNA normalized by pre- and post-spliced preproinsulin mRNA (% exon) in the corresponding islets with or without 50 ng/ml. TNF-α was also examined (n=3, *p<0.05). FIG. 3C) Glucose induced preproinsululin precursor mRNA synthesis with or without TNF-α (1, 5 and 50 ng/ml) and/or IFNγ (10, 100 and 1000 U/ml) from a single human islet in hextuplicate. […] All data are presented as a mean±standard error.
# Hand picked human islets were cultured with 100 uL of RPMI 1640 medium containing 5% fetal bovine serum and either low-glucose (3.3 mmol/L) or high-glucose (17 mmol/L) for 16 hours. Preproinsulin mRNA synthesis was measured from the islets by the methods described above. Pre-spliced preproinsulin mRNA (preproinsulin precursor mRNA) was normalized by pre- and post-spliced preproinsulin mRNA as described previously (32).
# The effect of TNF-α and/or IFN-γ on β cell function was examined by analyzing the ability of human islets to synthesize and release insulin. […] The dose dependent effect of TNF-α and/or IFN-γ on preproinsulin precursor mRNA synthesis was also examined.
molecule,measurement,setting,value
IL-1β: recombinant IL-1β; cytokine stimulus,PUMA mRNA (% ACTB) in human islets,human islets [1]; FIG. 16A,induced; also recorded: returned to the normal level by 16 hours
same,IL-8 mRNA (% ACTB) in human islets,human islets [1]; FIG. 16B,induced
same,endogenous IL-1B mRNA (% ACTB) in human islets,human islets [1]; FIG. 16C,induced
same,endogenous TNF mRNA (% ACTB) in human islets,human islets [1]; FIG. 16D,induced
Etanercept,TNF-α induced up regulation of PUMA mRNA (% ACTB),human islets [2],prevented TNF-α induced up regulation
same,TNF-α induced up regulation of IL-8 mRNA (% ACTB),human islets [2],prevented TNF-α induced up regulation
same,TNF-α induced up regulation of endogenous TNF mRNA (% ACTB),human islets [2],prevented TNF-α induced up regulation
same,HbA1C levels,[3],lowering HbA1C levels
same,endogenous insulin production,[3],increased levels of endogenous insulin production
Cc1ccc(S(=O)(=O)/C=C/C#N)cc1 [BAY11-7082],PUMA expression induced by the combination of TNF-α and IFNγ (western blot),"human islets [4]; 10 μM pre-incubation 1 hour, TNF-α 50 ng/ml + IFNγ 1000 U/ml, FIG. 2C",did not inhibit PUMA expression
Cc1ccc(NC(=O)c2ccc(CN3CCN(C)CC3)cc2)cc1Nc1nccc(-c2cccnc2)n1 [Imatinib],TNF-α induced up regulation of PUMA mRNA (% ACTB),human islets [2],reduced the up regulation
same,TNF-α induced up regulation of IL-8 mRNA (% ACTB),human islets [2],reduced the up regulation
same,TNF-α induced up regulation of endogenous TNF mRNA (% ACTB),human islets [2],reduced the up regulation
same,protection of islets from combined cytokines,islets,protect islets from combined cytokines
same,spontaneous onset of diabetes,NOD mice,prevents the spontaneous onset of diabetes
B1,PUMA protein expression (western blot),"human islets [4]; TNF-α 50 ng/mL and/or IFN-γ 1000 U/mL, FIG. 2A",but not by IFN-γ (1000 U/mL) alone
same,PUMA mRNA expression in human islets,"human islets [5]; 4 hours, FIG. 8K",did not induce PUMA
same,IL-8 mRNA expression in human islets,"human islets [5]; FIG. 8C, 8F, 8L",did not induce IL-8 expression
same,glucose-induced preproinsulin precursor mRNA synthesis,human islets [6],did not impair
